According to US20100136603A1, “KIT AND A METHOD FOR EVALUATING TOXICITY USING SPORE RELEASE BY THE GREEN ALGA ULVA” (priority 2008, published 2010):

System: Ulva pertusa Kjellman
Details: for order of toxicity of the heavy metal, estimated by EC50: rank order among heavy metals, spore release, 96 hours
Protocol: The present inventors collected Ulva pertusa Kjellman from the coast of Ahnin in Korea, and the leaf (thallus) of Ulva pertusa Kjellman was cut to have a coin shape having a diameter of 6 mm, and dispensed in the plastic cell plate containing 10 ml artificial sea water (35%) medium (Coralife, Energy Savers, California. USA) supplemented with 1 mM KNO3 and 0.1 mM K2HPO4.
The toxicity test was then carried out by adding toxic materials (toxicants) into the medium, keeping the other environmental conditions constant. The used toxic materials and the target concentration are described in the following Table 1.
After cultivated for 96 hours, the thallus having the coin shape was collected, and the area with white color was measured by using the microscope (Axioscope) having a magnification of 400× and the image analysis system (MV200, Samsung, Korea).
The mother liquid of TBTO was prepared in acetone that was mixed with the sea water (0.01%); here an acetone control group in the same concentration was also tested. The toxicities of volatile organic compounds (VOC) [acetone, ethanol, formalin and methanol) were tested by adding aqueous volatile organic compounds (VOC) to the medium to achieve the target concentration.

Structure (SMILES)	order of toxicity of the volatile organic compound (VOC) (in vivo)	order of toxicity of the heavy metal, estimated by EC50	half effective concentration (EC50) (in vivo)
CC(C)=O [acetone]	formaline>methanol>ethanol>acetone	–	–
[Zn] [Zn, zinc]	–	Cu>Cd>Zn>Pb	–
C=O [formaline]	formaline>methanol>ethanol>acetone	–	0.788 μl/L
[Cu] [Cu, copper]	–	Cu>Cd>Zn>Pb	–
CCO [ethanol]	formaline>methanol>ethanol>acetone	–	–
[Cd] [Cd, cadmium]	–	Cu>Cd>Zn>Pb	–
CO [methanol]	formaline>methanol>ethanol>acetone	–	–
